Molecular target: T1, bovine GRK5 (Bos taurus, UniProt P43249)
T1 construct: when using full-length kinases as the receptor[37] instead of isolated kinase domains; made in house
Assay: Primary DSF inhibitor screen, GRK5
Assay type: binding
Settings: 10 μM compound, 2 μM kinase, relative to DMSO control

T1 sequence (P43249 whole entry, the tested form may be a part): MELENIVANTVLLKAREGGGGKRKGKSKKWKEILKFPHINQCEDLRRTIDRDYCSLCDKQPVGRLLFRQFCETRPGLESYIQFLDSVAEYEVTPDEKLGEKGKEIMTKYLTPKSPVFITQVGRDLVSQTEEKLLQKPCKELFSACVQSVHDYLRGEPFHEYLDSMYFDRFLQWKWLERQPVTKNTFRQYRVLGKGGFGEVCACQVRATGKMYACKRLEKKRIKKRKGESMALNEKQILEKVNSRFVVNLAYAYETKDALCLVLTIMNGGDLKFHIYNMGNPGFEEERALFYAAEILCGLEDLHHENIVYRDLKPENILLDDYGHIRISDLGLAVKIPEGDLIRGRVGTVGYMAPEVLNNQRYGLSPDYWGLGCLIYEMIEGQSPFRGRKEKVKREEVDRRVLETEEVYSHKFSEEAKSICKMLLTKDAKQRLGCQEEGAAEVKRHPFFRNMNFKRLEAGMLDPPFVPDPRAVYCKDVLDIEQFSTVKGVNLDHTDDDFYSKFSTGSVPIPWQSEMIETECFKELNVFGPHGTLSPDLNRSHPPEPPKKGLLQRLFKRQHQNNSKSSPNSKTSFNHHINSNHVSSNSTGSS

Compound	ΔTm, primary screen, GRK5 [°C]
Cc1cncc2cccc(S(=O)(=O)N3CCCNC[C@@H]3C)c12 [H-1152, (S)-(+)-2-Methyl-1-[(4-methyl-5-isoquinolinyl)sulfonyl]homopiperazine]	5.95
NC(=O)Nc1sc(-c2ccccc2)cc1C(N)=O [IKK-2 Inhibitor VI]	2.57
CC(C)(C)c1nc2c3ccc(F)cc3c3c(=O)[nH]ccc3c2[nH]1 [JAK Inhibitor I, 2-(1,1-Dimethylethyl)-9-fluoro-3,6-dihydro-7H-benz[h]-imidaz[4,5-f]isoquinolin-7-one]	8.13
O=C1c2ccccc2-c2n[nH]c3cccc1c23 [JNK Inhibitor II, Anthra[1,9-cd]pyrazol-6(2H)-one]	2.19
COC(=O)[C@@]1(O)C[C@H]2O[C@]1(C)n1c3ccccc3c3c4c(c5c6ccccc6n2c5c31)C(=O)NC4 [K252a]	9.89
CS(=O)(=O)c1cccc(CNc2nc(Nc3ccc4c(c3)CCC(=O)N4)ncc2C(F)(F)F)c1 [PF 573228]	2.67
O=C1NC(=O)C(c2cn(CCCn3ccnc3)c3ccccc23)=C1Nc1ccccc1 [PKC beta inhibitor]	3.13
O=C1NC(=NCc2cccs2)S/C1=C\c1ccc2ncccc2c1 [RO-3306]	5.48
Cl.Cl.NCCNc1ncc(C(N)=O)c(Nc2cccc(C(F)(F)F)c2)n1 [Syk Inhibitor II]	2.43
Cn1cc(/C=C2\C(=O)Nc3ccc(S(N)(=O)=O)cc32)c2ccccc21 [Syk Inhibitor]	3.6
Cc1cc(C=C2C(=O)C=CC2=O)cc(C)c1O [TX-1918, 2-((3,5-dimethyl-4-hydroxyphenyl)-methylene)-4-cyclopentene-1,3-dione]	2.21
O [Water]	2.01
Cdk1/2 Inhibitor III	3.6
IGF-1R Inhibitor II	2.42
Wee1/Chk1 inhibitor	4.89

Same assay, conditions: 10 μM compound, 2 μM kinase, relative to DMSO control; read-out: ΔTm, primary screen, GRK5

Compound	ΔTm at 10 µM [°C]
Nc1ncnc2occ(-c3ccc(NC(=O)Nc4cc(C(F)(F)F)ccc4F)cc3)c12 [GW770249X]	3.19
Nc1nc(-c2ccc(F)cc2)c(-c2ccc3ncccc3n2)s1 [GW785804X]	3.16
Nc1ncnc2occ(-c3ccc(NC(=O)Nc4cccc(C(F)(F)F)c4)cc3)c12 [GW795493X]	4.96
Cc1ccc(NC(=O)CC2CC2)cc1-c1ccc(C(=O)NCC2CC2)cc1 [GW796920X]	3.82
Nc1nccc(C#Cc2cncnc2Nc2ccc(OCc3cccc(F)c3)c(Cl)c2)n1 [GW799251X]	4.33
NS(=O)(=O)c1ccc(Nc2cc(-c3cccc(O)c3)n[nH]2)cc1 [GW831090X]	2.96
NC(=O)c1sc(-n2cnc3ccc(C(F)(F)F)cc32)cc1OCc1ccccc1Br [GW853606X]	4.43
O=c1c(-c2ccc(O)cc2)coc2cc(O)cc(O)c12 [Genistein, 4',5,7-Trihydroxyisoflavone]	2.46
CC(C)[C@H](CO)Nc1nc(Nc2cccc(Cl)c2)c2ncn(C(C)C)c2n1 [Purvalanol A, 2-(1R-Isopropyl-2-hydroxyethylamino)-6-(3-chloroanilino)-9-isopropyl-purine]	6.44
O=c1c(O)c(-c2ccc(O)c(O)c2)oc2cc(O)cc(O)c12 [Quercetin, 3,3',4',5,7-Pentahydroxyflavone]	10.6
Cn1cc(C2=C(c3ccc(Cl)cc3Cl)C(=O)NC2=O)c2ccccc21 [SB216763]	2.78
Nc1nonc1-c1nc2cnccc2n1C1CC1 [SB-736302]	2.86
O=C(Nc1n[nH]c2nc(-c3ccco3)c(Br)cc12)C1CC1 [SB-739452]	2.03
O=C(O)c1ccc2c3c1cccc3c(=O)n1c3ccccc3nc21 [STO-609]	3.24
COc1ccc2c(c1)/C(=C/c1cnc[nH]1)C(=O)N2 [SU9516, 3-[1-(3H-Imidazol-4-yl)-meth-(Z)-ylidene]-5-methoxy-1,3-dihydro-indol-2-one]	3.59

Same assay, conditions: read-out: ΔTm, primary screen, GRK5, 10 μM compound, 2 μM kinase, relative to DMSO control

Compound	ΔTm at 10 µM [°C]
Clc1ccc(CNc2nccc(-c3cnn4ncccc34)n2)cc1 [GW781673X]	2.27

From PMC4301037, “Identification and Structure–Function Analysis of Subfamily Selective G Protein-Coupled Receptor Kinase Inhibitors” (ACS Chemical Biology, 2014)
